Measured values taken from patent US20110052534A1, “Imidazopyridazine Compounds for Treating Viral Infections” (priority 2009, published 2011).

What was measured:
Type in all cases: cell-based
in vitro = details: human; Table 3; cytotoxicity, cell titer glo, same condition as replicon assay; read-out: HCV Genotype 1B CC50
From the text: (§1) The genotype 1a replicon contains several adaptive mutations (NS4B Q31H, NS5A K68R, NS5A S232I), the luciferase gene and encodes for neomycin resistance. The genotype 1b replicon, also referred to as the ET replicon, is stably transfected with RNA transcripts harboring a I389luc-ubi-neo/NS3-3′/ET replicon with firefly luciferase-ubiquitin-neomycin phosphotransferase fusion protein and EMCV-IRES driven NS3-5B polyprotein containing the cell culture adaptive mutations (E1202G; T12801; K1846T) See, Kreiger, et al., Journal of Virology 75:4614-4624 (2001). Both cell lines were grown in DMEM, supplemented with 10% fetal calf serum, 2 mM Glutamine, Penicillin (100 IU/mL)/Streptomycin (100 μg/mL), 1×nonessential amino acids, and 250 μg/mL G418 (“Geneticin”). They were all available through Life Technologies (Bethesda, Md.). The cells were plated at 0.5×10^4 cells/well in 384 well plates containing compounds. The final concentration of compounds ranged between 0.1 nM to 50 μM and the final DMSO concentration of 0.5%.
(§2) Luciferase activity was measured 48 hours later by adding a Steady glo (Promega, Madison, Wis.). Percent inhibition of replication data was plotted relative to no compound control. Under the same condition, cytotoxicity of the compounds was determined using cell titer glo (Promega, Madison, Wis.). EC50 values were determined from a 10 point dose response curve using 2-4 fold serial dilutions for each compound, which spans a concentration range of at least a 1000 fold. Replicon EC50 values, the concentration of compound required to inhibit 50% of the assay response, were calculated by curve fitting data to the Hill equation, using a non-linear least-squares curve-fitting program. The software tested the data for quality and rejected compounds with high and low activity before fitting the equation below.

[1] = system: HCV genotype 1a H77 NS3-5B bicistronic subgenomic replicon; assay: microbe, parasite or virus in culture; details: Hepatitis C virus; Table 3; luciferase activity after 48 hours; read-out: HCV Genotype 1A Replicon EC50
From the text: (§3) Two cell lines were used for screening of compounds for inhibiting HCV RNA replication (genoytype 1a and 1b). Genotype la replicon cells, are a Huh-7 derived cell line bearing the genotype 1a H77NS3-5B bicistronic subgenomic replicon. See, Blight, et al., J. Virol. (2003) 77(5): 3181-3190.
as §1, §2
(§4) Analysis was performed using an XC50 module and BioAssay Enterprise (Cambridge Soft).

[2] = system: HCV genotype 1b replicon (ET replicon); assay: microbe, parasite or virus in culture; details: Hepatitis C virus; Table 3; luciferase activity after 48 hours; read-out: HCV Genotype 1B Replicon EC50
From the text: as §3, §1, §2, §4

Question: For COC(=O)C(c1cc(-c2ccc(C3CC3)cc2C(F)(F)F)no1)n1cc2nc(-c3cccc(F)c3F)nc-2cn1 (centres unmarked) [Compound 178, Methyl {3-[4-cyclopropyl-2-(trifluoromethyl)phenyl]-5-isoxazolyl}[2-(2,3-difluorophenyl)-5H-imidazo[4,5-d]pyridazin-5-yl]acetate], which CC50 (in vitro) is on record?
Answer: The CC50 was 25 µM.

Question: And the EC50 [1]?
Answer: The EC50 was 50 nM.

Question: And the EC50 [2]?
Answer: Its EC50 is 10 nM.

Question: For O=C(OCCOCCO)C(c1cc(-c2ccc(C3CC3)cc2C(F)(F)F)no1)n1cc2nc(-c3cccc(F)c3F)nc-2cn1 (centres unmarked) [Compound 179, 2-[(2-hydroxyethyl)oxy]ethyl {3-[4-cyclopropyl-2-(trifluoromethyl)phenyl]-5-isoxazolyl}[2-(2,3-difluorophenyl)-5H-imidazo[4,5-d]pyridazin-5-yl]acetate], which CC50 (in vitro) is on record?
Answer: Its CC50 is 50 µM.

Question: What about the EC50 [1] of the same compound?
Answer: Its EC50 is 79 nM.

Question: What about the EC50 [2] of the same compound?
Answer: Its EC50 is 13 nM.

Question: Which EC50 [1] does the source give for CC(CO)(CO)COC(=O)C(c1cc(-c2ccc(C3CC3)cc2C(F)(F)F)no1)n1cc2nc(-c3cccc(F)c3F)nc-2cn1 (centres unmarked) [Compound 180, 3-hydroxy-2-(hydroxymethyl)-2-methylpropyl {3-[4-cyclopropyl-2-(trifluoromethyl)phenyl]-5-isoxazolyl}[2-(2,3-difluorophenyl)-5H-imidazo[4,5-d]pyridazin-5-yl]acetate] here?
Answer: The EC50 was 79 nM.

Question: And the EC50 [2]?
Answer: Its EC50 is 8 nM.

Question: Which CC50 (in vitro) does the source give for O=C(OCCCO)C(c1cc(-c2ccc(C3CC3)cc2C(F)(F)F)no1)n1cc2nc(-c3cccc(F)c3F)nc-2cn1 (centres unmarked) [Compound 182, 3-Hydroxypropyl {3-[4-cyclopropyl-2-(trifluoromethyl)phenyl]-5-isoxazolyl}[2-(2,3-difluorophenyl)-5H-imidazo[4,5-d]pyridazin-5-yl]acetate] here?
Answer: Its CC50 is over 50 µM.

Question: And the EC50 [1]?
Answer: The EC50 was 63 nM.

Question: And the EC50 [2]?
Answer: The EC50 was 13 nM.

Question: Which results are given for CCCOC(=O)C(c1cc(-c2ccc(C3CC3)cc2C(F)(F)F)no1)n1cc2nc(-c3cccc(F)c3F)nc-2cn1 (centres unmarked) [Compound 184, Propyl {3-[4-cyclopropyl-2-(trifluoromethyl)phenyl]-5-isoxazolyl}[2-(2,3-difluorophenyl)-5H-imidazo[4,5-d]pyridazin-5-yl]acetate]?
Answer: CC50 (in vitro): 25 µM; EC50 [1]: 79 nM; EC50 [2]: 13 nM

Question: What does the source list for O=C(OCCCOP(=O)(O)O)C(c1cc(-c2ccc(C3CC3)cc2C(F)(F)F)no1)n1cc2nc(-c3cccc(F)c3F)nc-2cn1 (centres unmarked) [Compound 186, 3-(phosphonooxy)propyl {3-[4-cyclopropyl-2-(trifluoromethyl)phenyl]-5-isoxazolyl}[2-(2,3-difluorophenyl)-5H-imidazo[4,5-d]pyridazin-5-yl]acetate]?
Answer: CC50 (in vitro): 50 µM; EC50 [1]: 79 nM; EC50 [2]: 10 nM
